Consider one compound from patent US6207648A, “Methods of using cytochrome P450 reductase for the enhancement of P450-based anti-cancer gene therapy” (priority 1998, dated 2001).

Data set [1] concerns 9L tumors in female Fischer 344 rats. Nature of the data set: In vivo cytotoxicity / tumor excision assay, s.c. 9L tumors. On the set-up: species or system rat. The method, then:
FIG. 9 is a graph depicting the results of an in vivo tumor excision assay, which quantitates the extent of CPA-induced tumor cell kill in rats in vivo for 9L tumors, compared to 9L tumors engineered to express P450 alone (CYP2B1^+) or P450 in combination with RED (CYP2B1^+ RED^+++).Female Fischer 344 rats were inoculated with parental 9L, CYP2B1^+, and CYP2B1^+ RED^+++ tumor cells by subcutaneous injection of 2×10^6 tumor cells/0.2 ml in the hindleg as described below in the "Materials and Methods" section of Example 1. At 2 weeks after tumor implantation, each animal received a single injection of CPA (50 or 100 mg/kg body weight) or saline as control. Twenty four hours later, tumors were excised, and single cell suspensions were prepared for assay of colony formation activity. Results are presented as mean survival fractions as compared to control groups, for 4 or 5 determinations; bars, standard error (SE).
In vivo cytotoxicity assay: Tumor cells were grown subcutaneously as solid tumors in female Fischer 344 rats (120-150g). Each rat was inoculated by subcutaneous injection of one tumor cell line at the right thigh and a second tumor cell line at the left thigh at 2×10^6 cells/site. Rats were randomized and divided into three groups. One group was injected with saline as a control. The other two groups were treated with CPA at 50 mg/kg or 100 mg/kg body weight given as a single intraperitoneal injection 2 weeks after tumor implantation. At 24 hours after CPA injection, the rats were sacrificed and soaked briefly in 75% ethanol. The tumors were excised, suspended in DMEM, and minced under sterile conditions. […] The single cell suspensions were counted and plated at densities of 200, 2×10^3 and 2×10^4 cells/well of a 6-well plate, in duplicate, to determine cell viability by a colony formation assay. […] Cells were grown for 7 days and colonies (>50 cells) were then stained with crystal violet and counted. Results are expressed as the surviving fractions SEM of cells from drug treated groups compared to untreated controls.

The test system of data set [2] is 9L/P450 gliosarcoma cells. Nature of the data set: Growth inhibition assay of 9L/P450 cells, crystal violet (Example 2). The format is cell-based, rat. The following applies: for inhibition at 1000 µM: Rattus norvegicus, 96 h, 1 mM, 4 days. The procedure:
Control cells for each cell line received no drug treatment. Relative cell number at the end of the experiment was determined by crystal violet staining as described below in "Material and Methods" of Example 2. Data (mean±SD, n=3) are based on the crystal violet absorbance in drug-treated plates as a percent of the corresponding drug-free controls.
Briefly, culture dishes were washed once with phosphate buffered saline (PBS), stained for 10 minutes with crystal violet (1.25 g crystal violet (Sigma) dissolved in 500 ml containing 50 ml of 37% formaldehyde and 450 ml methanol), and then washed with PBS, twice for 20 minutes per wash. Absorbance values were measured in an SLT Spectra microtiter plate reader using a 595 nm filter. Background absorbance determined from wells containing culture media alone was subtracted from each value.

For the compound `O=P1(N(CCCl)CCCl)NCCCO1` (centres unmarked) [CPA, cyclophosphamide], in data set [1] (100 mg/kg, 24 h), the “killing of CYP2B1+ tumors compared to wild type 9L tumors” value is on record as “up to 10 fold”. Besides, the “additional tumor cell killing in CYP2B1+ RED+++ tumors” value in data set [1] (24 h after CPA) was “approximately 10 fold”. Moreover, in data set [1] (CYP2B1 + RED), the “overall increase in tumor cell kill in vivo over hepatic drug activation alone” value was 50-100 fold. Besides, the “effect of P450 reductase overexpression on cytotoxicity” value in data set [2] (9L/2B6 and 9L/2C18-Met cells, FIG. 15) is recorded as “markedly increased the cytotoxicity”. For the same compound, the “cytotoxicity with RED transduction alone, in absence of P450” value in data set [2] (9L/RED, FIG. 15) is “did not confer CPA or IFA cytotoxicity”. Besides, the “sensitivity of P450-negative cells” value in data set [2] (9L/wt and 9L/pBabe, millimolar concentrations) is on record as “insensitive”. Moreover, the inhibition at 1000 µM in data set [2] (9L/2B6) is more than 95%; in data set [2] (9L/2C9 and 9L/2C18-Thr) it was approximately 60%; in data set [2] (9L/2C19 and 9L/2C18-Met), 75 to 85%; in data set [2] (9L/3A4), approximately 90%. Besides, the “efficiency of P450 genes in chemosensitizing 9L cells to CPA” value in data set [2] (six human P450 genes) was found to be 2B6>2C18-Met~3A4>others.

One may read the inhibition as the drop in the measured response relative to a control, in per cent.
